Reference: patent US11426375B2, “Substituted bisphenyl butanoic ester derivatives as NEP inhibitors” (NOVARTIS AG, priority 2019, dated 2022)

System: DSS (Dahl Salt Sensitive) rats
Test: In vivo efficacy study on blood pressure in DSS rats (telemetry; systolic and diastolic pressure)
Details: for Systolic blood pressure, mean: Compound I-1 50 mg/kg, alone or combined, QD PO
Source text: An in vivo study ascertains the effects on blood pressure in DSS (Dahl Salt Sensitive) rats. The DSS hypertensive rat model is a model of hypertension that is sensitive to dietary salt (NaCl), see for example Rapp (1982) Hypertension 4:753-763 and Hegde et al. BMC Pharmacology 2011, 11 (Suppl 1):P33. Under pentobarbital sodium anesthesia, a DSI (Data Sciences International, St. Paul, Minn.) telemetric probe is implanted. The transducer is inserted into abdominal aorta, and the transmitter is implanted into abdominal cavity. During postoperative recovery period, close observation is performed. Analgesics (Buprenorphine, 0.1-0.5 mg/kg, once per day for 1 day) and preventive antibiotics (Cephradine, 10˜15 mg/kg, ip., once per day for 3 days) are administered on a daily basis. Before the treatment period, all animals are fed with 8% high salt food for about 2 weeks. Test compound is formulated in 0.5% HPC and administered by oral gavage. Five groups of animals are treated as follows: 1. Vehicle, 0.5% HPC, QD, PO, N=5 2. Valsartan, 30 mg/kg, QD, PO, N=5 3. Compound I-1, 50 mg/kg, QD, PO, N=6 4. Compound I-1, 15 mg/kg+Valsartan, 30 mg/kg, QD, PO, N=5 5. Compound I-1, 50 mg/kg+Valsartan, 30 mg/kg, QD, PO, N=5 N is the number of animals. The mean arterial pressure, systolic pressure, diastolic pressure and heart rate after administration for each animal are measured. Interim results obtained before full study completion are shown in Tables 18 and 19 (full cohort of animals beyond day 7 were reduced due to some loss). Mean measurements of the systolic (Table 18) and diastolic (Table 19) blood pressures, for the baseline day prior to first treatment and for treatment days 1 and 7 only, in each treatment group, are shown. Measurements obtained every other hour only are shown.

Compound: CCCCC(=O)N(Cc1ccc(-c2ccccc2-c2nnn[nH]2)cc1)[C@H](C(=O)O)C(C)C [Valsartan, valsartan]
- Systolic blood pressure, mean (Baseline day prior to first treatment, Hour 1, groups Valsartan 30 mg/kg): 157.31
- Systolic blood pressure, mean (Baseline day prior to first treatment, Hour 3, groups Valsartan 30 mg/kg): 154.77
- Systolic blood pressure, mean (Baseline day prior to first treatment, Hour 5, groups Valsartan 30 mg/kg): 151.17
- Systolic blood pressure, mean (Baseline day prior to first treatment, Hour 7, groups Valsartan 30 mg/kg): 154.26
- Systolic blood pressure, mean (Baseline day prior to first treatment, Hour 9, groups Valsartan 30 mg/kg): 160.88
- Systolic blood pressure, mean (Baseline day prior to first treatment, Hour 11, groups Valsartan 30 mg/kg): 163.83
- Systolic blood pressure, mean (Baseline day prior to first treatment, Hour 13, groups Valsartan 30 mg/kg): 164.35
- Systolic blood pressure, mean (Baseline day prior to first treatment, Hour 15, groups Valsartan 30 mg/kg): 163.94
- Systolic blood pressure, mean (Baseline day prior to first treatment, Hour 17, groups Valsartan 30 mg/kg): 164.12
- Systolic blood pressure, mean (Baseline day prior to first treatment, Hour 19, groups Valsartan 30 mg/kg): 166.66
- Systolic blood pressure, mean (Baseline day prior to first treatment, Hour 21, groups Valsartan 30 mg/kg): 166.05
- Systolic blood pressure, mean (Baseline day prior to first treatment, Hour 23, groups Valsartan 30 mg/kg): 162.95
- effect on blood pressure (DSS rats, as compared to animals treated with vehicle alone, interim results): trend for lower blood pressure
- Systolic blood pressure, mean (Dosing day 1, Hour 1, Valsartan 30 mg/kg): 159.22
- Systolic blood pressure, mean (Dosing day 1, Hour 3, Valsartan 30 mg/kg): 149.24
- Systolic blood pressure, mean (Dosing day 1, Hour 5, Valsartan 30 mg/kg): 152.75
- Systolic blood pressure, mean (Dosing day 1, Hour 7, Valsartan 30 mg/kg): 160.54
- Systolic blood pressure, mean (Dosing day 1, Hour 9, Valsartan 30 mg/kg): 165.09
- Systolic blood pressure, mean (Dosing day 1, Hour 11, Valsartan 30 mg/kg): 166.16
- Systolic blood pressure, mean (Dosing day 1, Hour 13, Valsartan 30 mg/kg): 162.84
- Systolic blood pressure, mean (Dosing day 1, Hour 15, Valsartan 30 mg/kg): 162.88
- Systolic blood pressure, mean (Dosing day 1, Hour 17, Valsartan 30 mg/kg): 169.80
- Systolic blood pressure, mean (Dosing day 1, Hour 19, Valsartan 30 mg/kg): 162.27
- Systolic blood pressure, mean (Dosing day 1, Hour 21, Valsartan 30 mg/kg): 163.01
- Systolic blood pressure, mean (Dosing day 1, Hour 23, Valsartan 30 mg/kg): 155.05
- Systolic blood pressure, mean (Dosing day 7, Hour 1, Valsartan 30 mg/kg): 165.60
- Systolic blood pressure, mean (Dosing day 7, Hour 3, Valsartan 30 mg/kg): 143.04
- Systolic blood pressure, mean (Dosing day 7, Hour 5, Valsartan 30 mg/kg): 142.52
- Systolic blood pressure, mean (Dosing day 7, Hour 7, Valsartan 30 mg/kg): 153.17
- Systolic blood pressure, mean (Dosing day 7, Hour 9, Valsartan 30 mg/kg): 170.26
- Systolic blood pressure, mean (Dosing day 7, Hour 11, Valsartan 30 mg/kg): 173.95
- Systolic blood pressure, mean (Dosing day 7, Hour 13, Valsartan 30 mg/kg): 175.24
- Systolic blood pressure, mean (Dosing day 7, Hour 15, Valsartan 30 mg/kg): 177.02
- Systolic blood pressure, mean (Dosing day 7, Hour 17, Valsartan 30 mg/kg): 176.02
- Systolic blood pressure, mean (Dosing day 7, Hour 19, Valsartan 30 mg/kg): 176.83
- Systolic blood pressure, mean (Dosing day 7, Hour 21, Valsartan 30 mg/kg): 164.22
- Systolic blood pressure, mean (Dosing day 7, Hour 23, Valsartan 30 mg/kg): 163.41
- Diastolic blood pressure, Mean (Valsartan 30 mg/kg, Baseline day, Hour 1): 106.03
- Diastolic blood pressure, Mean (Valsartan 30 mg/kg, Baseline day, Hour 3): 102.82
- Diastolic blood pressure, Mean (Valsartan 30 mg/kg, Baseline day, Hour 5): 100.19
- Diastolic blood pressure, Mean (Valsartan 30 mg/kg, Baseline day, Hour 7): 103.02
- Diastolic blood pressure, Mean (Valsartan 30 mg/kg, Baseline day, Hour 9): 110.48
- Diastolic blood pressure, Mean (Valsartan 30 mg/kg, Baseline day, Hour 11): 114.29
- Diastolic blood pressure, Mean (Valsartan 30 mg/kg, Baseline day, Hour 13): 115.22
- Diastolic blood pressure, Mean (Valsartan 30 mg/kg, Baseline day, Hour 15): 113.98
- Diastolic blood pressure, Mean (Valsartan 30 mg/kg, Baseline day, Hour 17): 114.14
- Diastolic blood pressure, Mean (Valsartan 30 mg/kg, Baseline day, Hour 19): 116.35
- Diastolic blood pressure, Mean (Valsartan 30 mg/kg, Baseline day, Hour 21): 116.78
- Diastolic blood pressure, Mean (Valsartan 30 mg/kg, Baseline day, Hour 23): 111.79
- Diastolic blood pressure, Mean (Valsartan 30 mg/kg, Dosing day 1, Hour 1): 107.73
- Diastolic blood pressure, Mean (Valsartan 30 mg/kg, Dosing day 1, Hour 3): 101.25
- Diastolic blood pressure, Mean (Valsartan 30 mg/kg, Dosing day 1, Hour 5): 98.63
- Diastolic blood pressure, Mean (Valsartan 30 mg/kg, Dosing day 1, Hour 7): 100.29
- Diastolic blood pressure, Mean (Valsartan 30 mg/kg, Dosing day 1, Hour 9): 109.35
- Diastolic blood pressure, Mean (Valsartan 30 mg/kg, Dosing day 1, Hour 11): 115.04
- Diastolic blood pressure, Mean (Valsartan 30 mg/kg, Dosing day 1, Hour 13): 116.06
- Diastolic blood pressure, Mean (Valsartan 30 mg/kg, Dosing day 1, Hour 15): 113.61
- Diastolic blood pressure, Mean (Valsartan 30 mg/kg, Dosing day 1, Hour 17): 112.82
- Diastolic blood pressure, Mean (Valsartan 30 mg/kg, Dosing day 1, Hour 19): 119.69
- Diastolic blood pressure, Mean (Valsartan 30 mg/kg, Dosing day 1, Hour 21): 112.65
- Diastolic blood pressure, Mean (Valsartan 30 mg/kg, Dosing day 1, Hour 23): 112.26
- Diastolic blood pressure, Mean (Valsartan 30 mg/kg, Dosing day 7, Hour 1): 113.86
- Diastolic blood pressure, Mean (Valsartan 30 mg/kg, Dosing day 7, Hour 3): 94.17
- Diastolic blood pressure, Mean (Valsartan 30 mg/kg, Dosing day 7, Hour 5): 93.33
- Diastolic blood pressure, Mean (Valsartan 30 mg/kg, Dosing day 7, Hour 7): 102.69
- Diastolic blood pressure, Mean (Valsartan 30 mg/kg, Dosing day 7, Hour 9): 117.65
- Diastolic blood pressure, Mean (Valsartan 30 mg/kg, Dosing day 7, Hour 11): 123.73
- Diastolic blood pressure, Mean (Valsartan 30 mg/kg, Dosing day 7, Hour 13): 125.63
- Diastolic blood pressure, Mean (Valsartan 30 mg/kg, Dosing day 7, Hour 15): 126.20
- Diastolic blood pressure, Mean (Valsartan 30 mg/kg, Dosing day 7, Hour 17): 124.23
- Diastolic blood pressure, Mean (Valsartan 30 mg/kg, Dosing day 7, Hour 19): 127.67
- Diastolic blood pressure, Mean (Valsartan 30 mg/kg, Dosing day 7, Hour 21): 112.77
- Diastolic blood pressure, Mean (Valsartan 30 mg/kg, Dosing day 7, Hour 23): 112.12
